Results from ChEMBL document CHEMBL4052696, “Varic acid analogues from fungus as PTP1B inhibitors: Biological evaluation and structure-activity relationships” (Bioorg Med Chem Lett, 2017).

What was measured:
[1] = biological target: Receptor-type tyrosine-protein phosphatase F (Homo sapiens, UniProt P10586); experiment: Inhibition of PTPLAR (unknown origin) using p-nitrophenyl phosphate substrate incubated for 30 mins
[2] = biological target: T1, Tyrosine-protein phosphatase non-receptor type 11 (Homo sapiens, UniProt Q06124); experiment: Inhibition of SHP2 (unknown origin) using p-nitrophenyl phosphate substrate incubated for 30 mins
T1 sequence (Q06124 whole entry): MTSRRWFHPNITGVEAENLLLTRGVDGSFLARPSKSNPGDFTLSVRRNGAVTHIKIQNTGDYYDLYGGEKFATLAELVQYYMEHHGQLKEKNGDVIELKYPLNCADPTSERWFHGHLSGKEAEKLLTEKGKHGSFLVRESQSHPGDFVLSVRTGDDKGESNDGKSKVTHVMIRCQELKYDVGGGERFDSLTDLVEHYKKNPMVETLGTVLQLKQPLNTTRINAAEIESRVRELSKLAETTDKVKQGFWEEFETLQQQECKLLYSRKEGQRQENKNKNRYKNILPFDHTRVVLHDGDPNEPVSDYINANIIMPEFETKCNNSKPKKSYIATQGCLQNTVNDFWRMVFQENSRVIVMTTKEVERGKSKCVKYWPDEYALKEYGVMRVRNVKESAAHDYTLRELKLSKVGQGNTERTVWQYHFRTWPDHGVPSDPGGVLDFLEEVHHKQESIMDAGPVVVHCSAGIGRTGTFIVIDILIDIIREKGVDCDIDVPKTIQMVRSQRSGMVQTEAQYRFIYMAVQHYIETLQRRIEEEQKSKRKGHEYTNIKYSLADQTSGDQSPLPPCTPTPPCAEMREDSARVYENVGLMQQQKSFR

[3] = biological target: T2, Tyrosine-protein phosphatase non-receptor type 1 (Homo sapiens, UniProt P18031); experiment: Inhibition of PTP1B (unknown origin) using p-nitrophenyl phosphate substrate incubated for 30 mins
T2 sequence (P18031 whole entry): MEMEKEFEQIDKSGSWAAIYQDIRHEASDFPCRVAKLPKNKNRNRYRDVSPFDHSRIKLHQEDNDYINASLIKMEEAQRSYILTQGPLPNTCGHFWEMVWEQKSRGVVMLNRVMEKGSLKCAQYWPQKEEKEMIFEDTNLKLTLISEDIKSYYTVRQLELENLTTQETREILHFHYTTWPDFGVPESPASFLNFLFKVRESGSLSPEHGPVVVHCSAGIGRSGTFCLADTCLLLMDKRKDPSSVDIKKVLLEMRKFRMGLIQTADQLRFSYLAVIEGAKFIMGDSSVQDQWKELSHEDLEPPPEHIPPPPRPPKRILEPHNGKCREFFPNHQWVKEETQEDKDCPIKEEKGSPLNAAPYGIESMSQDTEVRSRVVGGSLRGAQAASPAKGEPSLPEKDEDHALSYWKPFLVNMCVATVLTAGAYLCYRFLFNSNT

[4] = biological target: T3, Tyrosine-protein phosphatase non-receptor type 2 (Homo sapiens, UniProt P17706); experiment: Inhibition of TCPTP (unknown origin) using p-nitrophenyl phosphate substrate incubated for 30 mins
T3 sequence (P17706 whole entry): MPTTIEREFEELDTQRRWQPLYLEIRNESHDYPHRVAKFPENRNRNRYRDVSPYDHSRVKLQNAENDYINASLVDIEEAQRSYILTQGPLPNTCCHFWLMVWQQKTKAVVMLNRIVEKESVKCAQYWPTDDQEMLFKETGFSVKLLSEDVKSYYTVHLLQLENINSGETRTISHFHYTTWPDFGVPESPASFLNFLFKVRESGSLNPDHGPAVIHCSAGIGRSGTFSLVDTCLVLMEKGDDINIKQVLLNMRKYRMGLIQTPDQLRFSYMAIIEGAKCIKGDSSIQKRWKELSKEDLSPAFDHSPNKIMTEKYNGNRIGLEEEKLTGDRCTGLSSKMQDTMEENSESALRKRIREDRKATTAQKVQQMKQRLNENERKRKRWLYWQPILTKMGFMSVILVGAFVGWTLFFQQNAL

[5] = tested on: Rattus norvegicus; experiment: Toxicity in normal Wistar rat assessed as induction of hypoglycemia at 10 mg/kg, ip dosed 30 mins before insulin injection and measured 30 mins post insulin injection by glucose-oxidase assay; assay type: organism-based; settings: in vivo, 0.5 h
[6] = tested on: Rattus norvegicus; experiment: Toxicity in type 2 diabetic Wistar rat assessed as induction of hypoglycemia at 10 mg/kg, ip dosed 30 mins before insulin injection and measured 30 mins post insulin injection by glucose-oxidase assay; assay type: organism-based; settings: in vivo, 0.5 h

Receptor-type tyrosine-protein phosphatase F, sequence (P10586 whole entry): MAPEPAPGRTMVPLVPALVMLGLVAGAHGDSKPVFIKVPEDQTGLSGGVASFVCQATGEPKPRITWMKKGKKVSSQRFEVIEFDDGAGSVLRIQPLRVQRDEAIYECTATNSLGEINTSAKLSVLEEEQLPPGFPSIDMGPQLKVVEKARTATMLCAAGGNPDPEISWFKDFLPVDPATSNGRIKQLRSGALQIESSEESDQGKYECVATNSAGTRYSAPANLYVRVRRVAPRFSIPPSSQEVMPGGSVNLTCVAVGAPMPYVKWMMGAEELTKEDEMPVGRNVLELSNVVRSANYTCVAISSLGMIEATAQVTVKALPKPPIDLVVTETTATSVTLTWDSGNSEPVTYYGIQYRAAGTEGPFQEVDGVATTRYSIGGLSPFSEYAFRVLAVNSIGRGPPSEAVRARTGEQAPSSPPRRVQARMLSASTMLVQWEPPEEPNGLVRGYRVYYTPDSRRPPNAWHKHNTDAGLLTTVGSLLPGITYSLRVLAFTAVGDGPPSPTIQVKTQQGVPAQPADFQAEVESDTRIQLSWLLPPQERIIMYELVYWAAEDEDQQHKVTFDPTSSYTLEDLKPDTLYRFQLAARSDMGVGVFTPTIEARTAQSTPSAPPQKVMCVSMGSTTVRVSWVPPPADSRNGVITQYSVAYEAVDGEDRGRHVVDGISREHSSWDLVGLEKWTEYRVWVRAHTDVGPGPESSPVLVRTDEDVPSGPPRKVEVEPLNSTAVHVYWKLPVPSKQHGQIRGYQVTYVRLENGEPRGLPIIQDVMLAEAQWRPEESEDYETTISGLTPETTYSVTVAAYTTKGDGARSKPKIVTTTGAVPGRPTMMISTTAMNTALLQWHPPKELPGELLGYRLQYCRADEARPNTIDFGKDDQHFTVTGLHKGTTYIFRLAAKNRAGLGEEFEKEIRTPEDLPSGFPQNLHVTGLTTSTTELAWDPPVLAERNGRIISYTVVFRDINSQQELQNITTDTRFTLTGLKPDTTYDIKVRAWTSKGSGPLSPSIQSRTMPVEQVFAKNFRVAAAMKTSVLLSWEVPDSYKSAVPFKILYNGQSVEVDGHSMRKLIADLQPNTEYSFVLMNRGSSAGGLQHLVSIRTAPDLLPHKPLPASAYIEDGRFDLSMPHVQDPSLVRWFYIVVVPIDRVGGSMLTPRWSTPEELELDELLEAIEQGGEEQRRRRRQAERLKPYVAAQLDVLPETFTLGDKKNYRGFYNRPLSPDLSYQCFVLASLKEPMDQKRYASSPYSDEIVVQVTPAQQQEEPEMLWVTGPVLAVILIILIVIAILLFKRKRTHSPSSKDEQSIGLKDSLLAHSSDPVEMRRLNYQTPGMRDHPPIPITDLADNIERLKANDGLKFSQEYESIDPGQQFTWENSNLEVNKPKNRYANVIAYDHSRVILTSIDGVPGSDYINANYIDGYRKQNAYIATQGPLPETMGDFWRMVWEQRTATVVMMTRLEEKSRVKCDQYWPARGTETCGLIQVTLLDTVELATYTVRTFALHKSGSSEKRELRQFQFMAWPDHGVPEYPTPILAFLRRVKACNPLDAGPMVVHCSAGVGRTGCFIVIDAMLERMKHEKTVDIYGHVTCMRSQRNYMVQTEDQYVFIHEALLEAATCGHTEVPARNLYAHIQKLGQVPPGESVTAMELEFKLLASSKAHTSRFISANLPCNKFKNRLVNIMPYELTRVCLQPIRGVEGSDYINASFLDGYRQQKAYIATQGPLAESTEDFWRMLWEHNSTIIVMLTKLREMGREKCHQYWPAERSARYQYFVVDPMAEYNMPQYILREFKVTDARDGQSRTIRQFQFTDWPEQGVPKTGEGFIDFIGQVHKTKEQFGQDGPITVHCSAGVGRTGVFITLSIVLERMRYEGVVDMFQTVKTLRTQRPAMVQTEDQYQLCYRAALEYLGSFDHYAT

Structure (SMILES) | IC50 [1] | IC50 [2] | IC50 [3] | IC50 [4] | Activity [5] | Activity [6]
CCCc1cc(OC)cc(OC)c1C(=O)O | > 20 µM | > 20 µM | > 20 µM | > 20 µM |  | 
CCCc1cc(O)cc(O)c1C(=O)O | > 20 µM | 12.6 µM | 1.58 µM | > 20 µM |  | 
CCCc1cc(OC(=O)c2c(O)cc(OC(=O)c3c(O)cc(O)cc3CCC)cc2CCC)cc(O)c1C(=O)O | > 20 µM | 2.73 µM | 0.17 µM | 17.7 µM | Non-Toxic | Non-Toxic

Now from value to molecule, other results behind:

IC50 [1] | IC50 [2] | IC50 [3] | IC50 [4] | Structure (SMILES) | Activity [5] | Activity [6]
> 20 µM | 15 µM | 0.72 µM | > 20 µM | CCCc1cc(O)cc(OC(=O)c2c(O)cc(O)cc2CCC)c1 |  | 
> 20 µM | 0.18 µM | 4.27 µM | 4.74 µM | CCC/C=C/C=C/CCc1cc(O)cc(O)c1C(=O)O |  | 
> 20 µM | > 20 µM | 0.51 µM | > 20 µM | CCCc1cc(OC(=O)c2c(O)cc(O)cc2CCC)cc(O)c1C(=O)O |  | 
